Values joined by “and” are separate entries in the source; they are usually repeats but may differ in a detail not shown here. Identical values can stand only once.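 Step 1: Grow cells in 96-well plates. Step 2: Expose to compound for 48 hours at 5 concentrations. Step 3: Interpolate endpoints linearly; if unreached, use highest concentration. The concentration for 50% growth inhibition is given as GI50. TGI denotes the concentration required for complete inhibition of growth.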

The term GI50 denotes the concentration that inhibits growth by half. What is called TGI is the concentration at which net growth stops. A higher TGI goes with lower sensitivity of the cells.

Common to all, as to experiment: DTP human tumour cell line panel, 48 h
Test [1] concerns A549 NSCLC.
Test [2] has as its system 786-0 renal.
Test [3] has as its system K-562 leukemia.
The subject of test [4] is A498 renal.
Test [5] relates to MDA-MB-231 breast.
Test [6] relates to M14 melanoma.
Test [7] concerns U251 CNS.
For test [8], the system named is UACC-62 melanoma.
Test [9] relates to MDA-MB-435.
Test [10] concerns BT-549 breast.

With `COc1cc(N2CCC(N3CCN(C)CC3)CC2)ccc1Nc1ncnc(Nc2ccccc2S(=O)(=O)C(C)C)n1`, the GI50 is 3.17 µM in [1]; 8.55 µM in [2]; 10.6 µM in test [3]; 2.3 µM in test [4]; 3.31 µM in test [5]; 4.07 µM in test [6]. The GI50 in [7] was 4.34 µM; in test [8] it was 8.35 µM; in [9], 2.6 µM; in [10], 18.4 µM. Moreover, the TGI in [1] amounted to 14.9 µM; in [2] it was 22.9 µM; in test [3] it was 73.7 µM; in test [4], 17.2 µM; in test [5] it was 18.5 µM; in [6] it was 16.6 µM. In addition, the TGI in test [7] was determined as 19.1 µM; in test [8], 27.1 µM; in [9], 10.2 µM; in test [10] it was 44.7 µM.

As to `C=C(C)[C@@H]1CC[C@]2(C(=O)O)CC[C@]3(C)[C@H](CC[C@@H]4[C@@]5(C)CCC(NC(=O)c6cccc(OC(C)=O)c6OC(C)=O)C(C)(C)[C@@H]5CC[C@]43C)[C@@H]12` (stereo partly drawn), the GI50 in test [1] is 0.409 µM; in [2], 0.661 µM; in test [3], 0.332 µM; in test [4] it was 0.644 µM; in test [5], 1.09 µM; in [6], 0.399 µM. Further, the GI50 in test [7] was 0.52 µM; in test [8], 0.209 µM; in [9], 0.382 µM; in test [10], 1.18 µM. Further, the concentration for total growth inhibition (TGI) in test [1] is 2.47 µM; in [2], 3.47 µM; in test [3], more than 45.7 µM; in [4], 1.97 µM; in [5] it was 3.88 µM; in test [6] it was 2.25 µM. Further, the TGI in [7] is 14.5 µM; in test [8], 0.618 µM; in test [9], 1.61 µM; in test [10] it was 3.67 µM.

As for `C[C@]12CC[C@H](OC3OC(CO)C(O)C(O)C3O)C[C@H]1CC[C@@H]1[C@@H]2CC[C@]2(C)[C@@H](C3=CCOC3=O)CC[C@]12O` (stereo partly drawn), the GI50 in test [1] is > 100 µM and 84.5 µM; in [2], 15.4 µM; in test [3], more than 100 µM; in [4], more than 100 µM. Further, the total growth inhibition concentration (TGI) in test [1] is 50 µM and > 100 µM; in test [2], more than 100 µM; in test [3], 50 µM and > 100 µM; in test [4], 21.1 µM and > 100 µM; in test [5], more than 100 µM; in test [6], more than 100 µM. Besides, the concentration for total growth inhibition (TGI) in test [7] was 47.2 µM and > 100 µM; in test [8], 30.8 µM and > 100 µM; in test [9] it was more than 100 µM; in test [10] it was more than 100 µM.

Regarding `COc1ccc(/C(COc2ccc3c(=O)c(-c4ccccc4)coc3c2)=N\O)cc1`, the GI50 is 14.8 µM in test [1]; 16.9 µM in test [2]; 0.0674 µM in test [3]; 3.22 µM in test [4]; 0.698 µM in test [5]; 8.49 µM in test [6]. In addition, the GI50 in [7] is 1.1 µM; in [8], 0.662 µM; in test [9] it was 2.17 µM; in [10] it was 8.27 µM. In addition, the TGI is more than 83.6 µM in test [1]; 38.5 µM in [2]; more than 100 µM in test [3]; 18.5 µM in test [4]; 18.5 µM in test [5]; 23.8 µM in test [6]. The TGI in test [7] is more than 39.6 µM; in [8], 21.2 µM; in test [9], 4.64 µM; in test [10] it was 54.7 µM.

On to `O=C1O/C(=C\c2ccccc2)N(c2ccccc2)C1=O`, for which the TGI in [1], in test [2], in [3], in [4], in [5] and in [6] was more than 100 µM in each case. For the same compound, the TGI in test [7], in test [8], in test [9] and in [10] was more than 100 µM in each case.

As for `C[C@]12CC[C@@H]3c4cc(-c5ccc(F)cc5)c(O)cc4CC[C@H]3[C@@H]1CC[C@@H]2O`, the GI50 in [1] was 6.17 µM; in test [2], 11.9 µM; in test [3] it was 3.06 µM; in [4] it was 3.39 µM; in test [5], 7.86 µM; in [6], 14.2 µM. The GI50 is 5.54 µM in test [7], 12 µM in [8], 11.8 µM in [9] and 6.51 µM in [10]. The TGI in [1] amounted to 22.9 µM; in [2] it was 27.7 µM; in test [3], 18.3 µM; in [4] it was 12.2 µM; in [5] it was 23.9 µM; in test [6], 34.5 µM. In addition, the TGI in test [7] is 17.9 µM; in [8], 25.2 µM; in test [9], 28.6 µM; in [10], 23.3 µM.

With `C=C(CN1CCN(c2cccc(C(F)(F)F)n2)CC1)c1ccc(C(=O)Nc2ccccc2N)cc1`, the GI50 in test [1] was 3.33 µM and 0.39 µM; in test [2], 1.97 µM and 0.705 µM; in [3], 0.623 µM; in test [4], 0.875 µM and 0.261 µM; in test [5], 4.63 µM and 1.02 µM; in [6], 0.966 µM and 0.436 µM. For the same compound, the GI50 in [7] was 1.16 µM and 0.429 µM; in test [8], 0.97 µM and 0.51 µM; in [9] it was 0.27 µM and 0.205 µM; in [10] it was 0.918 µM and 0.34 µM. For the same compound, the TGI in test [1] was more than 100 µM; in test [2] it was 70 µM and 14 µM; in test [3], more than 100 µM; in [5], 34.2 µM and > 72.7 µM; in test [6], more than 100 µM; in test [7], 34.4 µM and 12.8 µM. The concentration for total growth inhibition (TGI) was more than 100 µM in test [8]; 2.26 µM and 0.767 µM in test [9]; 88.4 µM and > 100 µM in test [10].

Regarding `Cc1ccc(Cc2cnc(NC(=O)/C=C/c3cccc(C)c3)s2)cc1`, the GI50 in test [1] is 0.29 µM; in test [2], 0.389 µM; in [3], 0.0469 µM; in test [4] it was 0.277 µM; in test [5], 0.397 µM; in test [6], 0.0808 µM. Further, the GI50 in test [7] was 0.144 µM; in test [8] it was 0.0645 µM; in test [9] it was 0.0275 µM; in test [10], 0.256 µM. Besides, the TGI in test [1] was more than 67.7 µM; in [2], 4.04 µM; in test [3] it was more than 100 µM; in [4], 3.14 µM; in test [5], 5.08 µM; in test [6], 0.843 µM. For the same compound, the concentration for total growth inhibition (TGI) is 4.97 µM in [7], 25.3 µM in [8], 0.104 µM in test [9] and more than 27.4 µM in test [10].

As to `CNC(=S)NC(=O)c1c(Cl)n(C(=O)OC(C)(C)C)c2ccccc12`, the GI50 in [1] was 84.3 µM; in [2], 91.1 µM; in [3], more than 100 µM; in [4], 51.5 µM; in test [5] it was 33.7 µM; in test [6], 83 µM. The GI50 in test [7] was 53.6 µM; in test [8], 56.2 µM; in [9], 44 µM; in test [10] it was 53.2 µM. Besides, the TGI in test [1], in test [2], in [3], in [4], in test [5] and in test [6] was more than 100 µM each time. The TGI in test [7], in test [8], in test [9] and in [10] was more than 100 µM in each case.

With `Cc1nc2sc(C(=O)Nc3cccc4ccccc34)c(N)c2cc1C(O)c1ccccc1` (stereo not drawn), the 50% growth inhibitory concentration (GI50) in [1] was 0.0916 µM; in [2], 0.123 µM; in test [3] it was 0.0442 µM; in [4], 0.0202 µM; in [5], 0.15 µM; in test [6], 0.0409 µM. Further, the concentration for 50% growth inhibition (GI50) in [7] is 0.0499 µM; in test [8] it was 0.0747 µM; in [9] it was 0.0205 µM; in test [10], 0.144 µM. Moreover, the total growth inhibition concentration (TGI) in [1] is more than 100 µM; in [2] it was 9.69 µM; in test [3], more than 39.6 µM; in test [4], 0.0636 µM; in [5], 5.36 µM; in [6], 15 µM. Besides, the TGI is 13.5 µM in test [7], 12.3 µM in test [8], 0.0469 µM in test [9] and 3.63 µM in test [10].

On to `CNC(=O)c1ccc(N2C(=S)N(c3ccc(C#N)c(C(F)(F)F)c3)C(=O)C2(C)C)cc1F`, for which the GI50 was 33.6 µM in [1]; more than 44.2 µM in [2]; 33.9 µM in test [3]; more than 35.3 µM in test [4]; more than 38.6 µM in test [5]; 32.4 µM in test [6]. Further, the GI50 is 43 µM in test [7], 26.9 µM in [8], 41.9 µM in [9] and 22.3 µM in test [10]. For the same compound, the TGI is more than 95.4 µM in test [1]; more than 73.5 µM in test [2]; more than 100 µM in [3]; more than 71 µM in test [4]; more than 60.6 µM in test [5]; more than 65.3 µM in [6]. Moreover, the TGI in [7] is more than 79.7 µM; in test [8] it was more than 72.4 µM; in test [9], more than 79.3 µM; in [10] it was more than 73.4 µM.

Consider `C=C1C(=O)OC2C1CCC(C)C1C=CC(=O)C12C` (stereo not drawn), for which the TGI in test [1] came to 41.9 µM; in test [2], 4.19 µM; in test [3], 11.3 µM; in test [4], 26.7 µM; in test [5] it was 4.83 µM; in test [6] it was 4.85 µM. Further, the concentration for total growth inhibition (TGI) in test [7] was determined as 29.5 µM; in test [8], 4.11 µM; in test [9], 3.34 µM; in [10], 3.46 µM.
